This data set can be described thus: Randomized control study of daily topical application in women with low vitamin D. In kind it is in vivo, human. As to conditions: 3 months. How it is done: A study was carried out on 50 women with low vitamin D. The women were healthy and unmarried. Age, weight, height, and detailed medical history were recorded. Meticulous clinical examination was performed to rule out any diseases. A complete blood picture, including serum calcium, phosphorous, alkaline phosphatase, Parathormone and 25 Hydroxy-vitamin D (25OHD), was obtained. Two women had >30 ng/mL of 25OHD and were excluded from the study. The 25-Hydroxy Vitamin D3 level was measured in house by chemiluminescence immunoassay (CLIA), and 30 ng/mL was taken as normal, 21-29 ng/mL as insufficiency and 20 ng/mL as deficiency.
The participants were divided into two groups of 24 women each. All participants unequivocally agreed not to change their dietary habits and life style until the study was over. The group of women participating in the study were asked to apply the topical composition with Vitamin D3. Each gram of the composition delivered 5000 IU of vitamin D3. The second group used 1 gram of aloe vera gel. The participants had no knowledge to which group they belong. A second blood sample was taken at the end of 3 months, and the data was entered in the database and analyzed using a t-test to compare means between the two groups for all the parameters tested before and after topical use of VD and AVG. […]

Structures are written as SMILES.

On to `C=C1CC[C@H](O)C/C1=C/C=C1\CCC[C@]2(C)[C@@H]([C@H](C)CCCC(C)C)CC[C@@H]12` [Vitamin D3, cholecalciferol], for which the “safety of delivery through the dermal route” value is recorded as “can safely be delivered through the dermal route”.
